Measurements taken from ChEMBL document CHEMBL3621202, “Suppression of Hepatocellular Carcinoma by Inhibition of Overexpressed Ornithine Aminotransferase” (ACS Med Chem Lett, 2015).
Blank lines part the entries; values can stand above or below the compound they belong to. The source made the active and inactive calls. No cut-off for these calls is given here.

Legend:
[1] = molecular target: T1, Ornithine aminotransferase, mitochondrial (Homo sapiens, UniProt P04181); assay: Inhibition of human recombinant OAT using 1 mM alpha-ketoglutarate as substrate
T1 sequence (P04181 whole entry): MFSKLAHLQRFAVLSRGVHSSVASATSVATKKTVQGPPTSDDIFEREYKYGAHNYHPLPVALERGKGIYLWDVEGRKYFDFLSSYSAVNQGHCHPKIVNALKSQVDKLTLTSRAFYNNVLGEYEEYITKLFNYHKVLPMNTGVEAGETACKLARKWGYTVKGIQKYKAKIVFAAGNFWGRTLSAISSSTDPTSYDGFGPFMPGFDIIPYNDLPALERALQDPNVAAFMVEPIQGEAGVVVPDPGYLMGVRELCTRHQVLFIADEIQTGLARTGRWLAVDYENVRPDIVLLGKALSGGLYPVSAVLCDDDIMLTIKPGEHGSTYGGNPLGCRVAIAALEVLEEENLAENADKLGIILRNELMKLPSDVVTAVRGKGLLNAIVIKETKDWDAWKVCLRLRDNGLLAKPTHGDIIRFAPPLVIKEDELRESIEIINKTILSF

[2] = Antiproliferative activity against […] cells after 48 hrs by [3H]-thymidine incorporation assay; type: functional
HepG2 [3] = assay: Effect AFP secretion in human HepG2 cells by ELISA; type: functional, cell-based
[4] = Antiproliferative activity against human Hep3B cells after 48 hrs by [3H]-thymidine incorporation assay; type: functional, Hep 3B2
Hep 3B2 [5] = assay: Effect AFP secretion in human Hep3B cells by ELISA; type: functional, cell-based
Hepa1-6 = assay: Effect AFP secretion in […] cells by ELISA; type: functional, cell-based
Mus musculus [6] = assay: Reduction in AFP secretion in Hep3B cells xenografted Balb/C mouse serum at 500 ug/kg, ip administered as single dose by ELISA; type: functional, organism-based; details: Hep 3B2
Homo sapiens = organism: Homo sapiens; assay: Inhibition of alanine aminotransferase (unknown origin) at 4 mM using 5.55 mM L-alanine as substrate
Hep 3B2 [7] = assay: Decrease in AFP secretion in human Hep3B cells at 50 ug/ml by ELISA; type: functional, cell-based
Mus musculus [8] = assay: Reduction in AFP secretion in Hep3B cells xenografted Balb/C mouse serum at 1 mg/kg, po administered 3 weeks after xenograft measured 14 days after treatment by ELISA (reference value: 29155 pg/ml); type: functional, Hep 3B2
Mus musculus [9] = assay: Reduction in AFP secretion in Hep3B cells xenografted Balb/C mouse serum at 1 mg/kg, po administered 3 weeks after xenograft measured 21 days after treatment by ELISA; type: functional, organism-based; details: Hep 3B2
[10] = Antitumor activity against human Hep3B cells xenografted in Balb/C mouse assessed as tumor size at 1 mg/kg, po administered 3 weeks after xenograft measured 28 days after treatment (reference value: 24.2); type: functional, Hep 3B2
[11] = molecular target: Aspartate aminotransferase, cytoplasmic (Homo sapiens) (UniProt P17174); assay: Inhibition of aspartate aminotransferase (unknown origin) at 4 mM using 5.55 mM L-aspartate as substrate
HepG2 [12] = assay: Decrease in AFP secretion in human HepG2 cells at 50 ug/ml by ELISA; type: functional, cell-based
Mus musculus [13] = assay: Reduction in AFP secretion in Hep3B cells xenografted Balb/C mouse serum at 0.1 mg/kg, po administered 3 weeks after xenograft measured 21 days after treatment by ELISA; type: functional, organism-based; details: Hep 3B2
Mus musculus [14] = assay: Reduction in AFP secretion in Hep3B cells xenografted Balb/C mouse serum at 0.1 mg/kg, po administered 3 weeks after xenograft measured 14 days after treatment by ELISA (reference value: 29155 pg/ml); type: functional, Hep 3B2
[15] = Antitumor activity against human Hep3B cells xenografted in Balb/C mouse assessed as tumor size at 0.1 mg/kg, po administered 3 weeks after xenograft measured 28 days after treatment (reference value: 24.2); type: functional, Hep 3B2

Chain of Aspartate aminotransferase, cytoplasmic (Homo sapiens) (P17174 whole entry): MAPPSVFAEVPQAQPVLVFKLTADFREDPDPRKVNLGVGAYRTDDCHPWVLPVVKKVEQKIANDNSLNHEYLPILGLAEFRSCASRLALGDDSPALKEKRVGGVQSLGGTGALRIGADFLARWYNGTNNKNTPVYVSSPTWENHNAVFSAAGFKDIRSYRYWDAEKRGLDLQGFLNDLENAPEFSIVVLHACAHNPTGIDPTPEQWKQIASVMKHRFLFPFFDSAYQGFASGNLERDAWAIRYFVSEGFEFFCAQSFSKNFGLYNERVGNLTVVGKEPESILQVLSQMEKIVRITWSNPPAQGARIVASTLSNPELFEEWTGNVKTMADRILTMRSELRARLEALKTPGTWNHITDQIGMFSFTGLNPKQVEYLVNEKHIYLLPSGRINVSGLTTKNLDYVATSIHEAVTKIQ

Structure (SMILES): NC1C=CC=C(C(=O)O)C1 (stereo not drawn) [GABACULINE]
Ki [1]: 2.1 µM

Structure (SMILES): N[C@H]1C=C(C(=O)O)CCC1 [GABACULINE]
inhibition (INH) [2]: 43% | Activity (HepG2 [3]): inactive | inhibition (INH) [4]: 43% | Activity (Hep 3B2 [5]): inactive | Activity (Hepa1-6): inactive | inhibition (Mus musculus [6]): Active

inhibition (Homo sapiens): inactive | Ki [1]: 4.2 µM | inhibition [11]: inactive
Structure (SMILES): N[C@H]1C[C@@H](C(=O)O)CC1=C(C(F)(F)F)C(F)(F)F
inhibition (Hep 3B2 [7]): Active | Activity (Mus musculus [8]): 24857 pg/mL | inhibition (Mus musculus [9]): Active | fold change (FC) [10]: 3.1 | inhibition (HepG2 [12]): Active | inhibition (Mus musculus [13]): Active | Activity (Mus musculus [14]): 24857 pg/mL | fold change (FC) [15]: 4.5
